Laboratory results: patent publication US20040216177A1, “Congenic rats containing a mutant GPR10 gene” (OTSUKA PHARMACEUTICAL CO., LTD., priority 2003, published 2004)
pEC50, pIC50, pKd, pKi: −log10 of the molar value.

Columns and labels:
[1] = target: T1, cloned human wild-type GPR10 (Homo sapiens, UniProt P49683); assay: [125I]PrRP competition binding to CHO-hGPR10 cell membranes; details: 2-site competition model, site 2, 0.05 nM [125I]PrRP
T1 construct: For cloning of human wild-type GPR10 ORF, a DNA fragment was amplified from human genomic DNA; expressed in transfected cells
T1 sequence (P49683 1-370): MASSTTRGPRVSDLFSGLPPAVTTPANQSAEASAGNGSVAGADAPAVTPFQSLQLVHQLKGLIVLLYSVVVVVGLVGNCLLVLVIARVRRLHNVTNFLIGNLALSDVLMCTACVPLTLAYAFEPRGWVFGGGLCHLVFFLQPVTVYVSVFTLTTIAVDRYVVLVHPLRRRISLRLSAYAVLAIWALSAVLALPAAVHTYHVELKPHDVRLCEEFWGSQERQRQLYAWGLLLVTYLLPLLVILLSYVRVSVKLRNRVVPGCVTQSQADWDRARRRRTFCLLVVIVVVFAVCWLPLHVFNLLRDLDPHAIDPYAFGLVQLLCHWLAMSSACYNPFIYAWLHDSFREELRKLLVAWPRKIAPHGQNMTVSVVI
Experimental: Next, PrRP and compound X (molecular weight=318.38) were studied in quadruplicate at nanomolar to micromolar concentrations (PrRP at 0.01, 0.1, 0.5, 1, 5, 10, 50 and 100 nM; Compound X at 100, 300, 1000, 3000 and 10,000 nM) to determine their respective displacement of [^125I]PrRP (Amersham Biosciences UK Limited; catalog #IM341, Specific Activity=2000 Ci/mmol) binding to CHO-hGPR10 cell membranes. Membranes (20 μg protein) were incubated with 0.05 nM [^125I]PrRP, Compound X or vehicle, and buffer comprising 20 mM Tris (pH 7.4), 2.0 mM EGTA, 5.0 mM C4H6MgO4, 0.5 mM phenylmethylsulfonyl fluoride, 1.0 μg/ml pepstatin, 1.0 μl/ml protease inhibitor cocktail, and 0.1% (w/v) BSA. All of the reactions were performed in 96-well Basic Flashplates®, terminated by centrifugation (3,000 g×7 min) after a 90 min incubation at room temperature, and radioactive counts associated with membrane-bound [^125I]PrRP were counted in each well using a Microbeta TriLux microscintillation counter. Non-linear regression analysis of the competition binding data was used to calculate inhibition binding constants (IC50 and Ki), which is the concentration of Compound X that occupies half of the CHO-hGPR10 receptors specifically bound by 0.05 nM [^125I]PrRP. […]

[2] = target: T1, cloned human wild-type GPR10; assay: [3H]arachidonic acid release from CHO-hGPR10 cells; assay type: cell-based
Experimental: CHO cells stably expressing cloned human wild-type GPR10 (CHO-hGPR10 cells) were generated as described in Examples 2-3. CHO-hGPR10 were cultured in F-12 HAM medium supplemented with 2.0 mM L-glutamine, 10% (v/v) dialyzed fetal bovine serum, 1.0% hypoxanthine-thymidine supplement, and 1.0% G-418 selection agent. All of the cells were maintained at 37° C. in an atmosphere of 5% CO2 and passaged when ˜80% confluent using a non-enzymatic cell dissociation buffer (Sigma-Aldrich Corporation). CHO-hGPR10 cells were harvested when ˜70% confluent for use in [^3H]arachidonic acid release assays, which were performed as follows:
CHO-hGPR10 cells were plated at a density of 150,000 cells/well in 12 well tissue culture plates, rinsed 24 hr later with calcium and magnesium free Hank's Balanced Salt Solution (Gibco-BRL), and left to incubate for 4 hr in F-12 culture medium (1.0 ml/well) containing 100 nCi/ml of [^3H]arachidonic acid. The cells were then rinsed and incubated for 5 min in 1.0 ml/well of Hank's Balanced Salt Solution (Invitrogen Corp. CA) containing 20 mM HEPES buffer (Sigma-Aldrich Corp.) and 0.1% (w/v) fatty acid-free bovine serum albumin (Sigma-Aldrich Corp.). After repeating this rinse and incubation procedure 3 times, 1.0 ml of vehicle, PrRP or Compound X was added to each well and plates were left to incubate for 30 min at 37° C. 400 μl of the extracellular liquid present in each well was mixed with 2.6 ml of liquid scintillation cocktail and counted by liquid scintillation counting (1272 Clinigamma, LKB/Wallach) to calculate the total [^3H] radioactivity present in each well. All of the reactions were performed in triplicate, at concentrations in the 0.01 to 10,000 nM range, to determine the effects of PrRP and Compound X on basal [^3H]arachidonic acid release from CHO-hGPR10 cells. […]

[3] = target: T2, cloned human NH2-terminus truncated GPR10 (Homo sapiens, UniProt P49683, L65M); assay: [3H]arachidonic acid release from CHO-T-hGPR10 cells; assay type: cell-based
T2 construct: expressed in transfected cells
T2 sequence (P49683 65-370 L65M limits assumed): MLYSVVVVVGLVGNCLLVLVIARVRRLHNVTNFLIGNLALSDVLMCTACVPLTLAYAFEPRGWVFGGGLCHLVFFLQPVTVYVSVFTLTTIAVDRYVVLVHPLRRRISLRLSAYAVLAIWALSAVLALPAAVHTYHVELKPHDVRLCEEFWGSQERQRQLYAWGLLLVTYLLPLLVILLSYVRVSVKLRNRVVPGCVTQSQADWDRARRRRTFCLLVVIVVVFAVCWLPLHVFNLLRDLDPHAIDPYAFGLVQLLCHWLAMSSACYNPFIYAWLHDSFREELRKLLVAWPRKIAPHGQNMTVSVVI
Experimental: CHO cells were generated to stably express a cloned truncated form of the human GPR10, as described in Examples 2-3. These CHO-T-hGPR10 cells, which express a truncation of the first 64 amino acids present in the wild-type cloned human GPR10, were cultured in F-12 HAM medium, supplemented with 2.0 mM L-glutamine, 10% (v/v) dialyzed fetal bovine serum, 1.0% hypoxanthine-thymidine supplement and 1.0% G-418 selection agent. All of the cells were maintained at 37° C. in an atmosphere of 5% CO2 and passaged when ˜80% confluent using a non-enzymatic cell dissociation buffer (Sigma-Aldrich Corporation). CHO-T-hGPR10 cells were harvested when ˜70% confluent for use in [^3H]arachidonic acid release assays carried out as described below.
The effects of PrRP and Compound X on basal [^3H]arachidonic acid release from CHO-T-hGPR10 cells was performed using exactly the same assay procedure described in Example 7. PrRP and Compound X were each tested in triplicate at concentrations in the 0.01 to 10,000 nM range.
The mean radioactive counts (±SEM, N=3) detected in each reaction triplicate were calculated, and binding isotherms were analyzed by non-linear regression, using GraphPad Prism version 3.00 for Windows, to estimate the potency (EC50 with 95% confidence interval) and relative intrinsic activity (Emax as % basal release±SEM) of PrRP and Compound X. The results are shown in FIG. 19. […]

[4] = rats; cited from earlier work
[5] = target: cloned human NH2-terminus truncated (mutant) GPR10 (306 amino acids) (human) (UniProt P49683); assay: cell-based or functional assay
[6] = target: cloned human wild-type GPR10 (370 amino acids) (human) (UniProt P49683); assay: cell-based or functional assay
[7] = target: cloned human wild-type GPR10 (370 amino acids) (human) (UniProt P49683); assay: displacement of 0.05 nM [125I]PrRP from CHO-hGPR10 cell membranes, 2-site competition model, site 1
[8] = target: cloned human wild-type GPR10 (370 amino acids) (human) (UniProt P49683); assay: displacement of 0.05 nM [125I]PrRP from CHO-hGPR10 cell membranes, 2-site competition model, site 2
[9] = target: cloned human wild-type GPR10 (370 amino acids) (human) (UniProt P49683); assay: radioligand saturation binding on CHO-hGPR10 cell membranes, 2-site model, site 1
[10] = target: cloned human wild-type GPR10 (370 amino acids) (human) (UniProt P49683); assay: radioligand saturation binding on CHO-hGPR10 cell membranes, 2-site model, site 2
[11] = target: cloned human wild-type GPR10 (370 amino acids) (human) (UniProt P49683); assay: radioligand saturation binding on CHO-hGPR10 cell membranes, at [125I]PrRP concentrations near the KD
[12] = target: cloned human wild-type GPR10 (370 amino acids) (human) (UniProt P49683); assay: saturation radioligand binding on CHO-hGPR10 cell membranes; non-specific binding determined with 1.0 uM unlabelled PrRP

For prolactin-releasing peptide [PrRP], the pKi [1] was 9.54, the pIC50 ([1]; read-out: IC50 (2) displacement of [125I]PrRP) was 9.30 and the “Emax, relative intrinsic activity” value ([2]; 1.0 μM PrRP alone (Example 9)) was 75.3±6.1%. The “Emax, relative intrinsic activity” value ([2]; as % of 1 nM PrRP, tested alone) was 105.4±6.1%, the pEC50 ([2]; tested alone) was 10.37 and the “Emax, relative intrinsic activity” value ([3]; 1.0 nM PrRP alone, as % basal release) was 3.6±4.4%. The “activity on basal [3H]arachidonic acid release” value ([3]; 0.01 to 10,000 nM) was “inactive”, the ACTH [4] was “increase” and the body weight [4] was “reduce”. The food intake [4] was “reduce”, the plasma oxytocin [4] was “increase” and the wakefulness [4] was “promote wakefulness”.

For “PrRP (prolactin-releasing peptide), unlabelled”, the [^3H]arachidonic acid release from CHO-T-hGPR10 cells, Emax (as % basal release) [5] was 3.6%, the [^3H]arachidonic acid release from CHO-hGPR10 cells, EC50 [6] was 0.043 nM and the [^3H]arachidonic acid release from CHO-hGPR10 cells, Emax (as % 1.0 nM PrRP) [6] was 75.3%. For the same substance, the [^3H]arachidonic acid release from CHO-hGPR10 cells, Emax (as a % of 1 nM PrRP) [6] was 105%, the pIC50 [7] was 12.15 and the pKi [7] was 12.40. It also gave a pIC50 [8] of 9.30 and a pKi [8] of 9.54.

In the case of “[^125I]PrRP (radioiodinated prolactin-releasing peptide)”, the pKd [9] was 10.15, the pKd [10] was 10.14 and the percent of total binding that was specific [11] was > 80%. The EC50 (read off the curve) [12] was 0.07 nM.
